# US7714151B2, “Aminated isoflavonoid derivatives and uses thereof” (Novogen Research Pty Ltd, priority 2002, dated 2010)
# Like-named read-outs stand apart in the source and are kept apart here.
# Experiments:
# COX = COX inhibition screening assay in LPS-stimulated monocytes (prostaglandin radioimmunoassay); format: cell-based; settings: 10 μM, human monocytes
# Experimental: (§1) Human buffy coats were obtained from the Red Cross Blood Bank. Buffy coat (50 ml) was diluted 1:2 with sterile phosphate buffered saline (PBS), overlayed onto Lymphoprep density gradient medium and centrifuged at 800 g for 20 min. The mononuclear cell (MNC) layer was removed and washed with PBS and monocyte enriched cells were prepared from MNC by counter-current centrifugal elutriation. Monocytes were then resuspended in RPMI tissue culture medium with 10% foetal calf serum at 1.5×10^6 cells/ml. Test analogues were prepared in DMSO and incubated with monocytes at 37° for 30 min at either 10 or 100 μM. After the 30 min pre-incubation, bacterial lipopolysaccharide (LPS) was added (200 ng/ml) and cells were incubated for a further 18 h at 37° in 5% CO2. After centrifugation, cell-free supernatants were then removed and assayed for either prostaglandin or thromboxane production, as determined by radioimmunoassay. Because TXA2 is labile in aqueous medium, TXB2, the stable hydrolysis product of TXA2, was measured. For each dose (0, 10, 100 μM), incubations were performed in triplicate. Results are expressed as mean±SD, n=3. ANOVA followed by Newman-Keuls multiple comparisons test was used to examine differences between doses and the control values.
# [1] = tested on: testosterone-induced LNCaP proliferation; assay: Androgen inhibition study: testosterone-induced LNCaP proliferation; format: cell-based, human; settings: for IC50: Homo sapiens, LNCaP; for fold better than Cpd. 1 at inhibiting testosterone-induced proliferation: relative to Cpd. 1
# Experimental: The method of Negri-Cesi and Motta (1994) and Negri-Cesi et al. (1999) was followed. Briefly, LNCaP cells were cultured in RPMI supplemented with 10% fetal calf serum and 2 mM L-glutamine at 37° C. under 5% CO2. At day 0 a subconfluent LNCaP culture flask (80%) were harvested by trypsinisation, washed, resuspended in RPMI media completed with charcoal stripped fetal calf serum (RPMIi) and seeded into 12 well plates at 30,000 cells per well (15,000 cells/mL). The plates were cultured at 37° C. with 5% CO2 for 48 hours. On day 2, spent media was carefully aspirated from all plates and then replenished with 2 ml RPMIi containing either testosterone (0.5 pM) as positive control, testosterone plus finasteride (1 uM) as inhibitor control and vehicle as growth control (equivalent concentration of DMSO). Test plates were treated as described above; only serial dilutions of test compounds prepared in RPMIi were used. Concentrations of test compound were chosen based on their cytotoxicity profile as determined in the cell cytotoxicity analysis methods section above i.e. the top concentration used in the LNCaP proliferation assay was determined as the concentration at which cells first appear close to 100% viable along the cytotoxicity curve. This concentration was chosen to ensure that any inhibition of proliferation imparted by the test agent was due to the inhibition of 5′AR and not due to direct killing of the cells. It is important not to disturb cell monolayer during the addition of treatments. On days 5 and 8 the process followed on day 2 was repeated for all plates. On day 11 spent media was aspirated from all wells, cells were washed gently with PBS (500 μl), trypsinised and the cells in each well counted using a haemocytometer. The average cell count and standard deviation was calculated and the result expressed as the % inhibition of testosterone-induced proliferation in comparison with vehicle control.
# thromboxane synthase = target: T1, thromboxane synthase (Homo sapiens, UniProt P24557); assay: Thromboxane synthase inhibition screening assay in LPS-stimulated monocytes (TXB2 radioimmunoassay); format: cell-based
# T1 construct: endogenous in cells; host or cells: human peripheral blood monocytes (elutriated from buffy coat), LPS-stimulated
# T1 sequence (P24557 1-533): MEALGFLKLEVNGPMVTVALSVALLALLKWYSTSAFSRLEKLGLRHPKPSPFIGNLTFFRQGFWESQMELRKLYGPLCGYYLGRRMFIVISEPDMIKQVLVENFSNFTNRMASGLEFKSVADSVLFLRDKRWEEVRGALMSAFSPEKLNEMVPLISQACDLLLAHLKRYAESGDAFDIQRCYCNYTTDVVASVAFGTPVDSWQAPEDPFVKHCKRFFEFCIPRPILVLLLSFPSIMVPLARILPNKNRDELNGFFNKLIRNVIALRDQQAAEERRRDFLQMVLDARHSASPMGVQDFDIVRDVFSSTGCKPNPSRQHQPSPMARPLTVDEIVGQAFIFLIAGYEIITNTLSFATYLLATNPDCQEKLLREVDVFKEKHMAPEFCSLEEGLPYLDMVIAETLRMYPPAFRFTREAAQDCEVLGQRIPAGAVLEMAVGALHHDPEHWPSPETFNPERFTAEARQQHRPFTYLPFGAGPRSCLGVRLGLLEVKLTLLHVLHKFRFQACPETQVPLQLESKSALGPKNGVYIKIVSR
# Experimental: as §1
# [2] = tested on: DU145 (AR negative prostate Ca); assay: Cell cytotoxicity analysis (MTT), DU145; format: cell-based; settings: Homo sapiens
# Excerpt: (§2) The method of Alley et al. (1988) was followed. Briefly, prior to cytotoxicity screening a growth curve was constructed for each tumour line to be screened to determine growth kinetics, optimal seeding density to yield logarithmic growth over five days, and the corresponding lag time. Spent culture medium was aspirated from a sub-confluent adherent monolayer culture (T-75), the cells trypsinised and resuspended in a minimal volume of culture medium. After counting cells, a 96-well plate was seeded at an appropriate density (100 μl) to yield optimal growth parameters and the plate was then incubated at 37° C. under 5% CO2. After the pre-determined lag-time the plate was treated with either vehicle (negative control) or serial dilutions of the test compound prepared in culture medium, and then incubated for a further five days. MTT (0.5 mg/ml) prepared in PBS was added to all wells and incubated at 37° C. for ˜3 hr. Spent medium was then carefully aspirated and DMSO (150 μt) was added to solubilise cells and the reduced formazan. Absorbance was then read on a SpectraMax plate reader at 570 nm and viable cells in treated plates were expressed as a percentage of cells in control plates.
# [3] = tested on: LNCaP (AR positive Prostate Ca); assay: Cell cytotoxicity analysis (MTT), LNCaP; format: cell-based; settings: Homo sapiens
# Excerpt: as §2
# [4] = tested on: PC3 (AR negative prostate Ca); assay: Cell cytotoxicity analysis (MTT), PC3; format: cell-based; settings: Homo sapiens, 120 h, PC3, five days
# Excerpt: as §2
# [5] = tested on: NCI-H460 (large cell lung Ca); assay: Cell cytotoxicity analysis (MTT), NCI-H460; format: cell-based; settings: Homo sapiens
# Excerpt: as §2
# all cell lines tested = assay: Cell cytotoxicity analysis (MTT), statements over the cell lines tested; format: cell-based, human; settings: for overall cell killing activity against all cell lines tested: comparison of Cpd. 1, 2 and 3
# Excerpt: as §2
# [6] = tested on: MDA-MB-468 (ER negative breast Ca); assay: Cell cytotoxicity analysis (MTT), MDA-MB-468; format: cell-based; settings: Homo sapiens, 120 h, MDA-MB-468, five days
# Excerpt: as §2
# [7] = read-out: IC50 inhibition of testosterone-induced LNCaP proliferation
# [8] = read-out: IC50 inhibition of testosterone-induced proliferation
# [9] = 120 h, DU-145, five days, MTT, read-out: Cytotoxicity DU-145 Avg.
# [10] = DU-145, read-out: IC50 against DU-145
# [11] = 120 h, LNCaP, five days, MTT, read-out: Cytotoxicity LNCaP Avg.
# [12] = 120 h, NCI-H460, five days, MTT, read-out: Cytotoxicity NCI-H460 Avg.
Compound,inhibition of COX activity (COX) [%],"IC50 [1, 7] [nM]","IC50 [1, 8] [nM]",inhibition at 10 µM (thromboxane synthase) [%],"IC50 [2, 9] [µM]","IC50 [2, 10] [µM]","IC50 [3, 11] [µM]",IC50 ([3]; read-out: IC50 against LNCaP) [µM],IC50 [4] [µM],"IC50 [5, 12] [µM]","IC50 (all cell lines tested; Homo sapiens, cell lines other than LNCaP and DU-145, read-out: Modest activity against the other cell lines tested) [µM]",IC50 [6] [µM],IC50 ([1]; read-out: IC50 inhibition of testosterone-induced proliferation (nM)) [nM],fold better than Cpd. 1 at inhibiting testosterone-induced proliferation [1] [fold],overall cell killing activity against all cell lines tested (all cell lines tested),"IC50 ([5]; NCI-H460, read-out: activity against NCI-H460) [µM]","blocking of testosterone-induced proliferation ([1]; 1 μM, inhibitor control)"
Oc1ccc(C2COc3cc(O)ccc3C2=NNc2ccccc2)cc1 (stereo not shown) [Cpd. 1],100,2250,2250,33,13.8,13.8,16.2,16.2,33.9,27.6,> 20,34.9,–,–,–,–,–
O=[N+]([O-])c1ccc(NN=C2c3ccc(O)cc3OCC2c2ccc(O)cc2)cc1 (stereo not shown) [Cpd. 2],77,< 35,–,27,46,–,50.9,–,44.8,32.7,–,26.1,< 37,~60,lowest activity,–,–
Cc1ccc(NN=C2c3ccc(O)cc3OCC2c2ccc(O)cc2)cc1 (stereo not shown) [Cpd. 3],100,680,680,60,19.1,19.2,16.2,16.3,27.9,–,–,22.4,–,3,best overall cell killing activity,13.3,–
"CC(C)(C)NC(=O)[C@H]1CC[C@H]2[C@@H]3CC[C@H]4NC(=O)C=C[C@]4(C)[C@H]3CC[C@]12C [finasteride, reference compound]",–,–,–,–,–,–,–,–,–,–,–,–,–,–,–,–,potently blocked
